In patent publication US10369145B2, “Coumarin derivatives and methods of use in treating hyperproliferative diseases” (DISCOVERYBIOMED, INC., priority 2013, dated 2019):
Where two headings read alike, the source gives them in different places.

Columns and labels:
[1] = test system: SK-MEL-28; experiment: NCI 60 panel: SK-MEL-28 (Melanoma); assay type: cell-based
[2] = test system: SK-OV-3; experiment: Complementary DBM in vitro profiling: SK-OV-3 (Ovarian Cancer); assay type: cell-based
Procedure: (§1) The compounds described herein are effective for inhibiting cellular proliferation in hyperproliferative cell types. To study the effects of these compounds, an assay was developed to differentiate the effects of the compounds on proliferating versus confluent cells. The assay design generates a proliferating density 24 hours after seeding and provides a 3-day active cell growth/doubling window in which to gauge the anti-proliferative effect of the compounds described herein. […] In this 3-day growth window, cell number increases with daily doublings across the 72-hour period (see FIG. 1).
(§2) In each assay design, compounds were added at the 24-hour timepoint after cell seeding. The effect of the compounds, relative to vehicle control and to VelCade (a proteasome inhibitor approved in the U.S. for treating relapsed multiple myeloma and mantle cell lymphoma) as a positive control, was assessed across the 3-day growth window for proliferating cells and on an already near confluent culture of cells for the same time period. Normal cells were handled in the same manner, with some adjustment of seeding density needed in select cases. […]
(§3) Cell number at the end of the assay was determined using the CELLTITER-GLO Luminescent Cell Viability Assay (Promega; Madison, Wis.). The CELLTITER-GLO Luminescent Cell Viability Assay is a homogeneous method of determining the number of viable cells in culture based on quantitation of the ATP present, an indicator of metabolically active cells. IC50 values were calculated. […]
(§4) For a typical screening experiment to identify the compounds, cells were seeded into 96- or 384-well microtiter plates at plating densities pre-determined for each cell line to ensure drug exposure occurs during the proliferative phase well before confluency is reached. […] Values were calculated for each of these three parameters if the level of activity was reached; however, if the effect was not reached or was exceeded, the value for that parameter was expressed as greater or less than the maximum or minimum concentration tested.

[3] = test system: OVCAR-8; experiment: NCI 60 panel: OVCAR-8 (Ovarian Cancer); assay type: cell-based
[4] = test system: HT29; experiment: NCI 60 panel: HT29 (Colon Cancer); assay type: cell-based
[5] = test system: RXF 393; experiment: NCI 60 panel: RXF 393 (Renal Cancer); assay type: cell-based
[6] = test system: MALME-3M; experiment: NCI 60 panel: MALME-3M (Melanoma); assay type: cell-based
[7] = test system: HCT-116; experiment: NCI 60 panel: HCT-116 (Colon Cancer); assay type: cell-based
[8] = test system: CAKI-1; experiment: Complementary DBM in vitro profiling: CAKI-1 (Renal Cancer); assay type: cell-based
Procedure: as §1, §2, §3, §4

[9] = test system: CAKI-1; experiment: NCI 60 panel: CAKI-1 (Renal Cancer); assay type: cell-based
[10] = test system: OVCAR-3
From the text: (§5) TGI means the drug concentration resulting in total growth inhibition or “cytostasis.” LC50 is the concentration of drug resulting in a 50% reduction in the measured cytosolic ATP at the end of the drug treatment as compared to that at the beginning, indicating a net loss of cells following treatment (cytotoxicity).
(§6) A major limitation with the anti-mitotic drugs in particular and in conventional chemotherapeutics in general, is their susceptibility to cellular mechanisms of adaptive/intrinsic multi-drug resistance (i.e., MDR efflux pumps such as p-glycoprotein, MRP1).

[11] = test system: SK-OV-3
From the text: as §5, §6

[12] = test system: NCI/ADR-RES
From the text: as §5, §6

[13] = test system: NCI-H322M; experiment: NCI 60 panel: NCI-H322M (Non-Small Cell Lung Cancer); assay type: cell-based
[14] = read-out: LC50 (the source's name)

COc1ccccc1Nc1nc(-c2cc3cccc(N)c3oc2=O)cs1 [Compound DBM 228]
GI50 [1]: 88.9 nM
TGI [1]: 31000 nM
CC50 [1, 14]: 99300 nM
GI50 [2]: 845 nM
TGI [2]: >30000 nM
CC50 [2, 14]: > 30000 nM
GI50 [3]: 310 nM
TGI [3]: 13200 nM
CC50 [3, 14]: > 100000 nM
GI50 [4]: 308 nM
TGI [4]: 1600 nM
CC50 [4, 14]: 24700 nM
GI50 [5]: 218 nM
TGI [5]: 15200 nM
CC50 [5, 14]: 52600 nM
GI50 [6]: 16800 nM
TGI [6]: 49600 nM
CC50 [6, 14]: > 100000 nM
GI50 [7]: 79.5 nM
TGI [7]: 10000 nM
CC50 [7, 14]: > 100000 nM
GI50 [8]: 142 nM
TGI [8]: 1920 nM
CC50 [8, 14]: 5210 nM
GI50 [9]: 115 nM
TGI [9]: 27900 nM
CC50 [9, 14]: > 100000 nM
CC50 [10]: 24200 nM
GI50 ([10]; OVCAR-3): 45.6 nM
TGI ([10]; OVCAR-3): 322 nM
GI50 ([10]; OVCAR-3, as stated in text): 50 nM
CC50 [11]: > 100000 nM
GI50 ([11]; SK-OV-3): 410 nM
TGI ([11]; SK-OV-3): 22000 nM
GI50 ([11]; SK-OV-3, as stated in text): 330 nM
CC50 [12]: > 100000 nM
potency in multi-drug resistant line, in words (FIG. 9) ([12]; NCI-ADR/RES versus drug-responsive cells): remained potent
GI50 ([12]; NCI/ADR-RES): 45.9 nM
TGI ([12]; NCI/ADR-RES): 327 nM
IC50 ([12]; read-out: potency in the NCI-ADR/RES cell line, multi-drug resistant NCI-ADR/RES): 44.5 nM
GI50 [13]: 672 nM
TGI [13]: 25900 nM
CC50 [13, 14]: 93300 nM
